# Molecular target: bovine serum albumin (BSA) (Bos taurus, UniProt P02769)
# Test: Inhibition of the formation of AGEs in a BSA/reducing sugar solution, measured by fluorescence
# Format: biochemical
# Conditions: Example 4, comparison with anthocyanins of the prior art; fluorescence versus positive control 1.5 mM aminoguanidine; quenching taken into account
# Description: The preparation of a solution containing a protein and a reducing sugar was carried out extemporaneously as follows: a solution of bovine serum albumin (BSA) at a concentration between 1.5 μM and 1.5M, preferably between 15 μM and 500 μM, was incubated with a solution of a reducing sugar such as glucose, fructose, ribose, etc., preferably with glucose, at a concentration between 0.1M and 10M, preferably between 0.5M and 5M. […]
# The protein/reducing sugar solution prepared in 1 was incubated with or without (negative control) the presence of an extract obtained in 2, at a temperature between 40 and 60° C., preferably at around 50° C. for 1 to 5 weeks, preferably for 3 weeks. The active substances obtained by extraction according to the protocol described in paragraph 2—extracts were tested at a concentration between 0.001 and 10%, preferably between 0.01 and 5% and more particularly at 1% by weight in the protein/reducing sugar preparation. The positive control used was aminoguanidine at a concentration between 15 μM and 150 mM, preferably at a concentration between 1.5 mM and 15 mM in water. The measure of the inhibition of the AGEs was carried out by measuring the fluorescence (excitation wavelength between 350 and 375 nm, preferably at 355 nm; emission wavelength between 420 and 450 nm, preferably at 430 nm). The inhibition was calculated by deducing the resulting value of the interaction of the plant extracts with the molecules of the reaction medium (quenching).
# The preparation of a protein/reducing sugar solution was carried out according to the method described in Example 1 (paragraph 1). The molecules were tested at a concentration between 1×10^−7 and 1×10^−1%, and preferably between 1×10^−5 and 1×10^−1%, and in particular at 1×10^−1%, for example in water or in DMSO.
# Sequence of bovine serum albumin (BSA) (P02769 25-607): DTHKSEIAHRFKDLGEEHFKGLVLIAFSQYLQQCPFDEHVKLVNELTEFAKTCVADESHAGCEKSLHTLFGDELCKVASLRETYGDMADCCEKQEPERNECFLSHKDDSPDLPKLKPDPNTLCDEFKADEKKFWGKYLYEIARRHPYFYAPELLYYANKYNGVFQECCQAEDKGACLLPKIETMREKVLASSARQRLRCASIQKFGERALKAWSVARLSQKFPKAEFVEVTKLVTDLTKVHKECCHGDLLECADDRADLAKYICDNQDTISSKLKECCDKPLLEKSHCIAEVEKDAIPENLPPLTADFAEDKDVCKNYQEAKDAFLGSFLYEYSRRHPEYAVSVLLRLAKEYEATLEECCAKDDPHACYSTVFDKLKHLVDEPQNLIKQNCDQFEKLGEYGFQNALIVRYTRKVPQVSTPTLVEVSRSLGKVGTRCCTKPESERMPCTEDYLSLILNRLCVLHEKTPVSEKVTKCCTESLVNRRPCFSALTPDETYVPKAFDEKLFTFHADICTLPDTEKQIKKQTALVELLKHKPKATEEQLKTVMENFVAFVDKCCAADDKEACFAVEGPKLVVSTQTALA
row,Structure (SMILES),% inhibition [%]
1,"COc1cc(-c2[o+]c3cc(O)cc(O[C@@H]4O[C@H](CO)[C@@H](O)[C@H](O)[C@H]4O)c3cc2O[C@@H]2O[C@H](CO)[C@@H](O)[C@H](O)[C@H]2O)cc(OC)c1O.[Cl-] [Malvin Chloride, reference compound]",0
2,"OC[C@H]1O[C@@H](Oc2cc3c(O[C@@H]4O[C@H](CO)[C@@H](O)[C@H](O)[C@H]4O)cc(O)cc3[o+]c2-c2ccc(O)cc2)[C@H](O)[C@@H](O)[C@@H]1O.[Cl-] [Perlargonin chloride, reference compound]",0
3,"OC[C@H]1O[C@@H](Oc2cc3c(O)cc(O)cc3[o+]c2-c2ccc(O)c(O)c2)[C@H](O)[C@@H](O)[C@H]1O.[Cl-] [Idaein chloride, reference compound]",0
4,"OC[C@H]1O[C@@H](Oc2cc3c(O)cc(O)cc3[o+]c2-c2ccc(O)c(O)c2)[C@H](O)[C@@H](O)[C@@H]1O.[Cl-] [Kuromanin Chloride, reference compound]",0

# Same assay, conditions: characterized molecules, in particular at 1×10^−1% in water or DMSO; BSA/reducing sugar; fluorescence versus positive control 1.5 mM aminoguanidine
row,Structure (SMILES),% inhibition [%]
1,O=C([O-])c1ccccc1-c1c2cc(I)c(=O)c(I)c-2oc2c(I)c([O-])c(I)cc12.[Na+].[Na+] [Sodium erythrosine],95.6
2,"O=C1C=CC(=O)c2cc3ccccc3cc21 [1,4-Anthraquinone]",89.6
3,O=C(/C=C/c1ccc(O)cc1)c1ccccc1 [4-Hydroxychalcone],81.4
4,O=C1C[C@@H](c2ccc(O)cc2)Oc2cc(O[C@@H]3O[C@H](CO)[C@@H](O)[C@H](O)[C@H]3O)cc(O)c21 [Prunin],67.9
5,Nc1c(CO)ccc2c1C(=O)c1ccccc1C2=O [1-Amino-2-hydroxymethylanthraquinone],66.0
6,Nc1ccc(O)cc1 [4-Aminophenol],78.5
7,Oc1ccccc1O [Catechol],88.3

# System: not given
# Test: not given
# Conditions: kidneys; cited from earlier work
row,Structure (SMILES),reduction of the excretion of albumin in diabetics [%]
1,N=C(N)NN [Aminoguanidine],90

# — patent US20100316743A1, “INHIBITION OF THE FORMATION OF AGEs” (BASF BEAUTY CARE SOLUTIONS FRANCE S.A.S., priority 2007, published 2010)
